According to ChEMBL document CHEMBL1671651, “Azithromycin in Pseudomonas aeruginosa biofilms: bactericidal activity and selection of nfxB mutants” (2009):
Values after ≈ are worked out from the molar mass of the structure shown.

What was measured:
Assay type in all cases: functional
[1] = test system: Pseudomonas aeruginosa; test: Antimicrobial activity against mutS::lox-deficient Pseudomonas aeruginosa PAOMSB biofilm harboring nfxB T77C mutant gene selected at 4 ug/ml of azithromycin after 6 passages by Etest method
[2] = test system: Pseudomonas aeruginosa; test: Antimicrobial activity against mutS::lox,mexD::lox-deficient Pseudomonas aeruginosa PAOMSMxD biofilm by Etest method
[3] = test system: Pseudomonas aeruginosa; test: Antimicrobial activity against Pseudomonas aeruginosa PAO1 biofilm by Etest method
[4] = test system: Pseudomonas aeruginosa; test: Antimicrobial activity against mutS::lox-deficient Pseudomonas aeruginosa PAOMSA biofilm harboring nfxB G461A mutant gene selected at 4 ug/ml of azithromycin after 5 passages by Etest method
[5] = test system: Pseudomonas aeruginosa; test: Antimicrobial activity against mutS::lox-deficient Pseudomonas aeruginosa PAOMSA biofilm harboring nfxB T86C mutant gene selected at 4 ug/ml of azithromycin after 4 passages by Etest method
[6] = test system: Pseudomonas aeruginosa; test: Antimicrobial activity against Pseudomonas aeruginosa PAO1 A biofilm harboring duplication mutation at nucleotide 333 in nfxB gene selected at 0.5 ug/ml of azithromycin by Etest method
[7] = test system: Pseudomonas aeruginosa; test: Antimicrobial activity against mucA::lox-deficient Pseudomonas aeruginosa PAOMA biofilm by Etest method
[8] = test system: Pseudomonas aeruginosa; test: Antimicrobial activity against mutS::lox-deficient Pseudomonas aeruginosa PAOMS biofilm by Etest method
[9] = test system: Pseudomonas aeruginosa; test: Antimicrobial activity against mutS::lox-deficient Pseudomonas aeruginosa PAOMSB biofilm harboring nfxB T41C mutant gene selected at 4 ug/ml of azithromycin after 3 passages by Etest method
[10] = test system: Pseudomonas aeruginosa; test: Antimicrobial activity against mutS::lox-deficient Pseudomonas aeruginosa PAOMSA biofilm harboring nfxB T533C mutant gene selected at 4 ug/ml of azithromycin after 2 passages by Etest method
[11] = test system: Pseudomonas aeruginosa; test: Antimicrobial activity against mucA::lox-deficient Pseudomonas aeruginosa PAOMAA biofilm harboring nfxB C25T mutant gene selected at 1 ug/ml of azithromycin after 2 passages by Etest method
[12] = test system: Pseudomonas aeruginosa; test: Antimicrobial activity against mucA::lox, mutS::lox-deficient Pseudomonas aeruginosa PAOMSA biofilm by Etest method
[13] = test system: Pseudomonas aeruginosa; test: Antimicrobial activity against Pseudomonas aeruginosa PAO1 A biofilm harboring nfxB T248C mutant gene selected at 4 ug/ml of azithromycin after 4 passages by Etest method
[14] = test system: Pseudomonas aeruginosa; test: Antimicrobial activity against Pseudomonas aeruginosa PAO1 A biofilm harboring deletion mutation at nucleotide 231-244 in nfxB gene selected at 1 ug/ml of azithromycin after 4 passages by Etest method
[15] = test system: Pseudomonas aeruginosa; test: Antimicrobial activity against mucA::lox, mutS::lox-deficient Pseudomonas aeruginosa PAOMSAA biofilm harboring nfxB C89T mutant gene selected at 0.5 ug/ml of azithromycin after 3 passages by Etest method
[16] = test system: Pseudomonas aeruginosa; test: Antimicrobial activity against mucA::lox, mutS::lox-deficient Pseudomonas aeruginosa PAOMSAB biofilm harboring nfxB T544C mutant gene selected at 4 ug/ml of azithromycin after 1 passages by Etest method
[17] = test system: Pseudomonas aeruginosa; test: Antimicrobial activity against nfxB gene-deficient Pseudomonas aeruginosa PAONB biofilm by Etest method
[18] = test system: Pseudomonas aeruginosa; test: Antimicrobial activity against mutS::lox-deficient Pseudomonas aeruginosa PAOMSA biofilm harboring nfxB G539A mutant gene selected at 4 ug/ml of azithromycin after 6 passages by Etest method
[19] = test system: Pseudomonas aeruginosa; test: Antimicrobial activity against mucA::lox, mutS::lox-deficient Pseudomonas aeruginosa PAOMSAA biofilm harboring nfxB T86C mutant gene selected at 4 ug/ml of azithromycin after 2 passages by Etest method
[20] = test system: Pseudomonas aeruginosa; test: Antimicrobial activity against mucA::lox, mutS::lox-deficient Pseudomonas aeruginosa PAOMSAB biofilm harboring nfxB T86C mutant gene selected at 4 ug/ml of azithromycin after 2 passages by Etest method
[21] = test system: Pseudomonas aeruginosa; test: Antimicrobial activity against mutS::lox-deficient Pseudomonas aeruginosa PAOMSB biofilm harboring nfxB T562C mutant gene selected at 4 ug/ml of azithromycin after 4 passages by Etest method
[22] = test system: Pseudomonas aeruginosa; test: Antimicrobial activity against mutS::lox-deficient Pseudomonas aeruginosa PAOMSB biofilm harboring nfxB T380C mutant gene selected at 0.5 ug/ml of azithromycin after 2 passages by Etest method
[23] = test system: Pseudomonas aeruginosa; test: Antimicrobial activity against mucA::lox, mutS::lox-deficient Pseudomonas aeruginosa PAOMSAB biofilm harboring nfxB C89T mutant gene selected at 4 ug/ml of azithromycin after 6 passages by Etest method
[24] = test system: Pseudomonas aeruginosa; test: Antimicrobial activity against mucA::lox, mutS::lox-deficient Pseudomonas aeruginosa PAOMSAA biofilm harboring nfxB C89T mutant gene selected at 4 ug/ml of azithromycin after 6 passages by Etest method
[25] = test system: Pseudomonas aeruginosa; test: Antimicrobial activity against mexD::lox-deficient Pseudomonas aeruginosa PAOMxD biofilm by Etest method
[26] = test system: Pseudomonas aeruginosa; test: Antimicrobial activity against mucA::lox, mutS::lox-deficient Pseudomonas aeruginosa PAOMSAB biofilm harboring nfxB C25T mutant gene selected at 1 ug/ml of azithromycin after 2 passages by Etest method
[27] = test system: Pseudomonas aeruginosa; test: Antimicrobial activity against mucA::lox, mutS::lox-deficient Pseudomonas aeruginosa PAOMSAA biofilm harboring nfxB T77C mutant gene selected at 4 ug/ml of azithromycin after 3 passages by Etest method
[28] = test system: Pseudomonas aeruginosa; test: Antimicrobial activity against mutS::lox-deficient Pseudomonas aeruginosa PAOMSB biofilm harboring nfxB C116T mutant gene selected at 4 ug/ml of azithromycin after 5 passages by Etest method
[29] = test system: Pseudomonas aeruginosa; test: Antimicrobial activity against mucA::lox-deficient Pseudomonas aeruginosa PAOMAB biofilm harboring nfxB G125T mutant gene selected at 0.5 ug/ml of azithromycin after 1 passages by Etest method
[30] = test system: Pseudomonas aeruginosa; test: Antimicrobial activity against mutS::lox-deficient Pseudomonas aeruginosa PAOMSA biofilm harboring nfxB T86C mutant gene selected at 4 ug/ml of azithromycin after 3 passages by Etest method
[31] = test system: Pseudomonas aeruginosa; test: Antimicrobial activity against mutS::lox-deficient Pseudomonas aeruginosa PAOMSB biofilm harboring deletion od C534 in nfxB mutant gene selected at 4 ug/ml of azithromycin after 2 passages by Etest method
[32] = test system: Pseudomonas aeruginosa; test: Antimicrobial activity against mutS::lox-deficient Pseudomonas aeruginosa PAOMSA biofilm harboring nfxB C116T mutant gene selected at 1 ug/ml of azithromycin after 1 passages by Etest method
[33] = test system: Pseudomonas aeruginosa; test: Antimicrobial activity against mutS::lox,nfxB gene-deficient Pseudomonas aeruginosa PAOMSNB biofilm by Etest method

Row | Compound | MIC [1] [µg/mL] | MIC [2] [µg/mL] | MIC [3] [µg/mL] | MIC [4] [µg/mL] | MIC [5] [µg/mL] | MIC [6] [µg/mL] | MIC [7] [µg/mL] | MIC [8] [µg/mL] | MIC [9] [µg/mL] | MIC [10] [µg/mL] | MIC [11] [µg/mL] | MIC [12] [µg/mL] | MIC [13] [µg/mL] | MIC [14] [µg/mL] | MIC [15] [µg/mL] | MIC [16] [µg/mL] | MIC [17] [µg/mL] | MIC [18] [µg/mL] | MIC [19] [µg/mL] | MIC [20] [µg/mL] | also measured
1 | CO/N=C(\C(=O)N[C@@H]1C(=O)N2C(C(=O)[O-])=C(C[N+]3(C)CCCC3)CS[C@H]12)c1csc(N)n1 [CEFEPIME] | 12 | 1.5 (≈ 3.12 µM) | 1.5 (≈ 3.12 µM) | 8 | 6 | 12 | 1.5 (≈ 3.12 µM) | 1.5 (≈ 3.12 µM) | 8 | 8 | 12 | 1.5 (≈ 3.12 µM) | 12 | 12 | 12 | 12 | 8 (≈ 16.6 µM) | 12 | 16 | 12 | MIC [21]: 6 µg/mL; MIC [22]: 12 µg/mL; MIC [23]: 16 µg/mL; MIC [24]: 16 µg/mL; MIC [25]: 1.5 µg/mL (≈ 3.12 µM); MIC [26]: 8 µg/mL; MIC [27]: 12 µg/mL; MIC [28]: 12 µg/mL; MIC [29]: 12 µg/mL; MIC [30]: 16 µg/mL; MIC [31]: 12 µg/mL; MIC [32]: 12 µg/mL; MIC [33]: 8 µg/mL (≈ 16.6 µM)
2 | C[C@H]1[C@H](NC(=O)/C(=N\OC(C)(C)C(=O)O)c2csc(N)n2)C(=O)N1S(=O)(=O)O [AZTREONAM] | 1 | 2 (≈ 4.59 µM) | 2 (≈ 4.59 µM) | 2 | 0.75 | 0.75 | 2 (≈ 4.59 µM) | 2 (≈ 4.59 µM) | 2 | 0.75 | 0.75 | 2 (≈ 4.59 µM) | 0.75 | 0.5 | 1 | 2 | 0.5 (≈ 1.15 µM) | 0.75 | 1 | 1 | MIC [21]: 1.5 µg/mL; MIC [22]: 0.75 µg/mL; MIC [23]: 1 µg/mL; MIC [24]: 1 µg/mL; MIC [25]: 2 µg/mL (≈ 4.59 µM); MIC [26]: 0.75 µg/mL; MIC [27]: 2 µg/mL; MIC [28]: 0.75 µg/mL; MIC [29]: 0.5 µg/mL; MIC [30]: 1 µg/mL; MIC [31]: 2 µg/mL; MIC [32]: 2 µg/mL; MIC [33]: 1 µg/mL (≈ 2.3 µM)
3 | C[C@@H](O)[C@H]1C(=O)N2C(C(=O)O)=C(SCCNC=N)C[C@H]12 [IMIPENEM ANHYDROUS] | 0.5 | 1.5 (≈ 5.01 µM) | 1.5 (≈ 5.01 µM) | 1.5 | 0.19 | 0.25 | 1 (≈ 3.34 µM) | 1.5 (≈ 5.01 µM) | 1 | 0.38 | 0.38 | 1.5 (≈ 5.01 µM) | 0.38 | 0.38 | 0.38 | 1 | 0.19 (≈ 0.635 µM) | 0.25 | 0.38 | 0.25 | MIC [21]: 1 µg/mL; MIC [22]: 0.25 µg/mL; MIC [23]: 0.38 µg/mL; MIC [24]: 0.38 µg/mL; MIC [25]: 1.5 µg/mL (≈ 5.01 µM); MIC [26]: 0.25 µg/mL; MIC [27]: 1 µg/mL; MIC [28]: 0.38 µg/mL; MIC [29]: 0.25 µg/mL; MIC [30]: 0.25 µg/mL; MIC [31]: 1 µg/mL; MIC [32]: 1 µg/mL; MIC [33]: 0.5 µg/mL (≈ 1.67 µM)
